The source of these data is patent publication US12435091B2, “RNA-binding protein multimerization inhibitors and methods of use thereof” (THE UAB RESEARCH FOUNDATION, priority 2020, dated 2025).

Structures are written as SMILES. Like-named read-outs stand apart in the source and are kept apart here.

Data set [1] has as its system microglial lysates (iNOS, HuR, KSRP, Arginase 1, YM1). Description: Western blot analysis of microglial lysates. It is filed as cell-based, mouse. Particulars: 1.0 μM. In general terms: In western blotting, separated proteins are transferred to a membrane and probed.
The subject of data set [2] is XD456 cell line. Description: attached cell colony formation assay. It is filed as cell-based. Particulars: 3 uM. How it is done: (§1) The soft agar colony formation assay was performed by using 0.9% and 0.45% agarose for the bottom and the top layers, respectively; cells were incorporated in the top layer. Seaplaque low-melting temperature agarose was purchased from Lonza (Rockland, ME). Five hundred cells per well were utilized in both, the soft agar and the attached colony formation assays, which were performed in 6 well plates; cells were treated with vehicle as the control or with the desired drugs, which were administered twice per week for three weeks. The Crystal violet solution (0.1%) was utilized for colony staining in both assays. The colonies were counted after three weeks of treatment; the plate images were obtained by using Amersham Imager-600 reader (Piscataway, NJ).
(§2) Graphs in FIG. 8D illustrate the average numbers of colonies formed by established U251 and PDGx XD456 cell lines in the attached cell colony formation assay and in the soft agar colony formation assay, which represents anchorage independent cell growth.

The test system of data set [3] is U251 cell line. In words: attached cell colony formation assay. It is filed as cell-based. The settings on record: 3 uM. The procedure: as §1, §2
Data set [4] has as its system allodynia after spared nerve injury. Description: spared nerve injury (sciatic nerve) model, mechanical sensitivity (Von Frey). The settings on record: acute administration to DMSO-treated mice at day 7. Type of data set: in vivo. How it is done:
Wild-type male mice were subjected to a mid-thoracic contusion injury and then treated with SRI-42127 (15 mg/kg) every 8 hours for 4 days, starting 1 hour after injury. […] Not to be bound by theory, similar to spinal cord injury, chronic pain signaling is triggered by activation of microglia and astroglia in the spinal cord and production of inflammatory mediators (e.g. TNF-α, IL-1β, IL-6, INOS, CCL2) that induce hyperexcitation of sensory neurons in the dorsal horn. Mice underwent sciatic nerve lesioning to produce a spared nerve injury and then received SRI-42127 (15 mg/kg) or vehicle every 6 hours for 4 days (starting 1 h after injury). Mechanical sensitivity was assessed at day 7 post-injury. […] Following this test, a subset of mice in the DMSO-treated group was given an acute administration of SRI-42127 (or DMSO) and their mechanical sensitivity was tested at 30 minutes and 60 minutes post-administration. Acute treatment with SRI-42127 reversed allodynia in these mice for at least 60 minutes (p<0.01, FIG. 21, Panel D).

Data set [5] concerns primary human astrocytes. Description: cleaved caspase-3 immunostaining in primary human astrocytes. Type of data set: cell-based. The settings on record: up to 15 uM. How it is done: At the end of experiments, neurons and astrocytes were rinsed briefly with PBS and fixed by using 4% paraformaldehyde, pH 7.4 for 13 minutes at room temperature. Triton X-100 (0.3%) in PBST buffer (i.e., PBS with 0.1% Tween 20) was used for cell permeabilization for 30 minutes at room temperature. Cells were rinsed with PBST buffer 3 times for 10 minutes after fixation. Blocking buffer (3% BSA, 22.52 mg/ml glycine in PBST) was used to block unspecific antibody binding for 30 minutes at room temperature. Primary cleaved caspase 3 antibody (Cell Signaling Technology; Danvers, MA) at 1:200 dilution in PBST buffer with 1% BSA was utilized overnight at 4° C. for cleaved caspase 3 staining. The next day, cells were rinsed four times for 10 minutes with PBST buffer and then were incubated with secondary antibody (Alexa Fluor 594, goat anti-rabbit IgG, Invitrogen (Carlsbad, CA), 1:2000/5000 dilution) in PBST buffer with 1% BSA for 1 hour at room temperature in the dark. Next, cells were rinsed with PBST buffer 4 times for 10 minutes in the dark. Cell nucleus were stained with DAPI (4′,6-diamidino-2-phenylindole). Cell images were obtained with EVOS Fl (Life Technologies; Eugene, OR) imaging system.
The cellular metabolism declined by about 44% after treatment with SRI-42127, 25 uM for 48 hours as shown by FIG. 5E. […]

Data set [6] deals with T1, HuR (Homo sapiens, UniProt Q15717).
T1 construct: expressed in transfected cells; host or cells: U251 glioma cells, doxycycline-inducible constructs
In words: cell-based split firefly luciferase-HuR dimerization assay. An outline of the steps:
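U251 cells carrying HuR fused to N- or C-terminal split firefly luciferase halves (dimer reporter) or full-length Fluc (control); constructs induced with doxycycline 0.75 ug/ml for 48 h. Compounds at various concentrations vs vehicle for 6 h. Luciferin-driven luminescence read; mean+SD.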

Data set [7] relates to HuR. In words: HuR localization (N/C ratio) in LPS-stimulated cultured astrocytes. Type of data set: cell-based. Particulars: 0.5 μM for 24 hours. How it is done: First, the effect of SRI-42127 on HuR localization in astrocytes was studied. […] Quantification of the N/C HuR ratio using methodology described with microglia was 2.0. With LPS stimulation, there was translocation of HuR to the cytoplasm consistent with astrocyte activation and the N/C ratio decreased to 0.4 (P<0.001). When cells were treated with SRI-42127, this ratio was reversed back to pre-stimulation value (1.9). These findings indicate that SRI-42127 blocks cytoplasmic translocation of HuR in activated astrocytes.

T1 sequence (Q15717 whole entry): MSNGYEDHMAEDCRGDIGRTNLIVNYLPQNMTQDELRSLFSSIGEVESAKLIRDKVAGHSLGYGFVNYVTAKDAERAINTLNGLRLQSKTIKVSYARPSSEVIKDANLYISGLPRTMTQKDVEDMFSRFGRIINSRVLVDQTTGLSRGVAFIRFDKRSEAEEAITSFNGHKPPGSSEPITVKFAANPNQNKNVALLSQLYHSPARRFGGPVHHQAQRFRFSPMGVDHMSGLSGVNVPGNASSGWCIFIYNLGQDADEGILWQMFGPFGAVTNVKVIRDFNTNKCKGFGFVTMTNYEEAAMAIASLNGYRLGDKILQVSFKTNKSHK

As usually defined, the IC50 is the concentration at which inhibition is half-maximal. `CN(c1ccc2ncc(-c3ccc4cn[nH]c4c3)n2n1)C1CCOCC1` [Compound 19]: the “suppression of iNOS protein” value in data set [1] is given as 4.2 fold. Moreover, the number of colonies in data set [2] is on record as 34+12; in data set [3], 49+28. In data set [4], the “duration of reversal of allodynia after acute administration” value is recorded as “at least 60 minutes”. For the same compound, the “cleaved caspase-3 activation” value in data set [5] was “significant alterations in cleaved caspase-3 activation were not observed”. Moreover, the “HuR inhibition activity (in words)” value in data set [6] was “active”. Besides, the “HuR N/C Imax % Inh” value in data set [6] (Concn 50 uM) worked out at 90%. The concentration for half-maximal inhibition (IC50) in data set [6] (U251 cells co-expressing HuR-Nluc and HuR-Cluc, 6 hours of treatment, read-out: HuR IC50) worked out at 1.2 ± 0.2 µM; in data set [6] (U251 with dox-inducible HuR-dimerization reporters, after increase in HuR dimerization by two fold, 6 hours, read-out: IC50 for inhibition of HuR dimerization), 1.9 ± 0.1 µM; in data set [6] (U251 with dox-inducible HuR-dimerization reporters, before increase in HuR dimerization, 6 hours, read-out: IC50 for inhibition of HuR dimerization), 1.2 ± 0.1 µM; in data set [6] (split luciferase HuR dimerization assay, compounds administered for 6 hours, read-out: HuR IC50) it was 1.5 µM. In data set [6] (after 6 hours of cell treatment), the “maximum inhibition of HuR dimerization” value came out at 90±1%. Moreover, in data set [7], the “N/C HuR ratio” value turned out to be 1.9.
